Test results from patent US20040106804A1 (RICHTER GEDEON VEGYESZETI GYAR RT., priority 2001, published 2004).

Conditions: speed depends on the conditions of the dehydration

temperature at which the monohydrate is transformed into anhydrous fluconazole ("anhydrate"): 40-90 °C
SMILES: OC(Cn1cncn1)(Cn1cncn1)c1ccc(F)cc1F [monohydrate, 2-(2,4-Difluorophenyl)-1,3-bis(1,2,4-triazole-1-yl)-propane-2-ol Monohydrate]
